Earlier results in patent publication US20040229855A1, “Antiglucocorticoids for the treatment of postpartum psychosis” (Corcept Therapeutics, Inc., priority 2003, published 2004).

Assays:
[1] = target: T1, glucocorticoid receptor (Homo sapiens, UniProt P04150); details: cited from earlier work
T1 sequence (P04150 1-777): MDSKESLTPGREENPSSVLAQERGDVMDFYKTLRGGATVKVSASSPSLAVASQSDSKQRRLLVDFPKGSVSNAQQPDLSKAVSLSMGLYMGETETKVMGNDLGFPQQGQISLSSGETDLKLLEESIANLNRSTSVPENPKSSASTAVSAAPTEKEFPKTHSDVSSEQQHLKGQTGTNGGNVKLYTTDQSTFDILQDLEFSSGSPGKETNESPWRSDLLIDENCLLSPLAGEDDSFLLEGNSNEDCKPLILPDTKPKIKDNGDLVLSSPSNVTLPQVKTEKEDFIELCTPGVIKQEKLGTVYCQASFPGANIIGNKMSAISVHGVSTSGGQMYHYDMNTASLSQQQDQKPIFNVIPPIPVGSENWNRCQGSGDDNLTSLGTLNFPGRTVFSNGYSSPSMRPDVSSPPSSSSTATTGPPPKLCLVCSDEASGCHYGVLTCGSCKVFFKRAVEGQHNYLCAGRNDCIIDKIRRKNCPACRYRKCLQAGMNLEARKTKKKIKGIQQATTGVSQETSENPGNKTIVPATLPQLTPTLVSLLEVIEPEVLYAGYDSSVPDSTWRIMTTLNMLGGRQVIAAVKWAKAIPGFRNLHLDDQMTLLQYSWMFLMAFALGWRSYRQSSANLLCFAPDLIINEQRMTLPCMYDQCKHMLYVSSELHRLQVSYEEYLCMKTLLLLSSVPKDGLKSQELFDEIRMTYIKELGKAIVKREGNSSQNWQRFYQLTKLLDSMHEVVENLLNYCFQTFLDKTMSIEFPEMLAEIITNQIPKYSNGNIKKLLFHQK

[2] = target: T2, progesterone receptor (Homo sapiens, UniProt P06401); details: cited from earlier work
T2 sequence (P06401 1-933): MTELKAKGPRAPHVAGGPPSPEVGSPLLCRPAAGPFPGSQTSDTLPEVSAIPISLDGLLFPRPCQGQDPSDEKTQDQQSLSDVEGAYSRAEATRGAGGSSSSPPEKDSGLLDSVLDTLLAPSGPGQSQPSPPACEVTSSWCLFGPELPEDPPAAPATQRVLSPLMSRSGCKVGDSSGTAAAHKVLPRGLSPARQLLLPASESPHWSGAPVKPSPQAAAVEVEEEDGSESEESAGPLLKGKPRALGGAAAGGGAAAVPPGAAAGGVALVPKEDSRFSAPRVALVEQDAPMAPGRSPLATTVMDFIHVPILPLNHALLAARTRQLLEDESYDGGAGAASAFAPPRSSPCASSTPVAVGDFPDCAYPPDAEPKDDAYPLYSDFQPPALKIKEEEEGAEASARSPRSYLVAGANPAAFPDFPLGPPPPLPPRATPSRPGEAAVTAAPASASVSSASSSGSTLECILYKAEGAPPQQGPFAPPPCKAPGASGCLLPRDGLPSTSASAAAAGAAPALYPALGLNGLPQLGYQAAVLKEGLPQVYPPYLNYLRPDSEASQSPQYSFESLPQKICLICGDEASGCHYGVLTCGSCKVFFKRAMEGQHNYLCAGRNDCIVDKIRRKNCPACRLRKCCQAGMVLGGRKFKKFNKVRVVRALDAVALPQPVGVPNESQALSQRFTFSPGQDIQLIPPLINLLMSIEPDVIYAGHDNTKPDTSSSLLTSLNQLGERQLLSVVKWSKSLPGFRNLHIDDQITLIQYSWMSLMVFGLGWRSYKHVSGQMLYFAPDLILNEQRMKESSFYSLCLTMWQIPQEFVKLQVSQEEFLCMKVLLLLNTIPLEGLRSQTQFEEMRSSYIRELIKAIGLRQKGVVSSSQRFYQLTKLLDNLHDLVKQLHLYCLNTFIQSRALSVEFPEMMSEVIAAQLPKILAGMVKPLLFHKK

[3] = in one study (Kawai 1989); cited from earlier work

Compound | glucocorticoid receptor antagonist activity [1] | progesterone receptor antagonist activity [2] | daily dose excreted in the urine [3]
CC#C[C@]1(O)CC[C@H]2[C@@H]3CCC4=CC(=O)CCC4=C3[C@@H](c3ccc(OCCN(C)C)cc3)C[C@@]21C [RU009, 11β-(4-dimethylaminoethoxyphenyl)-17α-propynyl-17β-hydroxy-4,9 estradien-3-one] | glucocorticoid receptor antagonist effects | – | –
CC#C[C@]1(O)CC[C@H]2[C@@H]3CCC4=CC(=O)CCC4=C3[C@@H](c3ccc(N(C)C)cc3)C[C@@]21C [mifepristone, 17-β-hydroxy-11-β-(4-dimethyl-aminophenyl)-17-α-(1-propynyl)-estra-4,9-dien-3-one] | powerful antagonist | powerful antagonist | less than 0.5%
